The test system of test [1] is VEGF induced increases in intracellular calcium levels in HUVEC (human umbilical vein endothelial cells). The test is described as follows: VEGF Stimulated Ca++ Signal in Vitro (FLIPR, cell based assay). Particulars: for IC50: VEGF stimulation 5 ng/mL, 30 min pre-incubation, 0.01 to 10.0 uM. On the procedure: VEGF Stimulated Ca^++ Signal in Vitro
Automated FLIPR (Fluorometric Imaging Plate Reader) technology was used to screen for inhibitors of VEGF induced increases in intracellular calcium levels in fluorescent dye loaded endothelial cells. HUVEC (human umbilical vein endothelial cells) (Clonetics) were seeded in 96-well fibronectin coated black-walled plates overnight @ 37° C./5% CO2. Cells were loaded with calcium indicator Fluo-4 for 45 minutes at 37° C. Cells were washed 4 times (Original Cell Wash, Labsystems) to remove extracellular dye. For screening, cells were pre-incubated with test agents for 30 minutes at a single concentration (10 uM) or at concentrations ranging from 0.01 to 10.0 uM, followed by VEGF stimulation (5 ng/mL). Changes in fluorescence at 516 nm were measured simultaneously in all 96 wells using a cooled CCD camera. Data were generated by determining max-min fluorescence levels for unstimulated, stimulated, and drug treated samples. IC50 values for test compounds were calculated from % inhibition of VEGF stimulated responses in the absence of inhibitor.

Test [2] concerns the target T1, cytoplasmic domain of the human VEGF receptor (VEGFR-2) (Homo sapiens, UniProt P35968).
T1 construct: The cytoplasmic domain of the human VEGF receptor (VEGFR-2) was expressed; His (Histidine tag); made in house; host or cells: insect cells (engineered baculovirus)
The test is described as follows: KDR kinase assay (ELISA, poly-Glu-Tyr substrate, with BSA). It counts as biochemical. Particulars: His-VEGFR-2, 3.6 μM ATP, plates incubated with 1% BSA. On the procedure:
The cytoplasmic domain of the human VEGF receptor (VEGFR-2) was expressed as a Histidine-tagged fusion protein following infection of insect cells using an engineered baculovirus. His-VEGFR-2 was purified to homogeneity, as determined by SDS-PAGE, using nickel resin chromatography. Kinase assays were performed in 96 well microtiter plates that were coated overnight with 30 μg of poly-Glu-Tyr (4:1) in 10 mM Phosphate Buffered Saline (PBS), pH 7.2–7.4. The plates were incubated with 1% BSA and then washed four times with PBS prior to starting the reaction. Reactions were carried out in 120 μL reaction volumes containing 3.6 μM ATP in kinase buffer (50 mM Hepes pH 7.4, 20 mM MgCl2, 0.1 mM MnCl2 and 0.2 mM Na3VO4). Test compounds were reconstituted in 100% DMSO and added to the reaction to give a final DMSO concentration of 5%. Reactions were initiated by the addition 0.5 ng of purified protein. Following a ten minute incubation at 25° C., the reactions were washed four times with PBS containing 0.05% Tween-20. 100 μl of a monoclonal anti-phosphotyrosine antibody-peroxidase conjugate was diluted 1:10000 in PBS-Tween-20 and added to the wells for 30 minutes. Following four washes with PBS-Tween-20, 100 μl of 0-Phenylenediamine Dihydrochloride in Phosphate-citrate buffer, containing urea hydrogen peroxide, was added to the wells for 7 minutes as a colorimetric substrate for the peroxidase. The reaction was terminated by the addition of 100 μl of 2.5N H2SO4 to each well and read using a microplate ELISA reader set at 492 nm. IC50 values for compound inhibition were calculated directly from graphs of optical density (arbitrary units) versus compound concentration following subtraction of blank values.
In general terms: In an ELISA, binding on a coated surface is turned into a signal by an enzyme label.

Where [3] appears, read: Homo sapiens, single concentration 10 uM, VEGF 5 ng/mL.

Here are results for 24 compounds from patent US7060844B2, “(3Z)-3-(2,3-dihydro-1H-inden-1-ylidene)-1,3-dihydro-2H-indol-2-ones as kinase inhibitors” (Allergan, Inc., priority 2002, dated 2006).

T1 sequence (P35968 786-1356 limits assumed): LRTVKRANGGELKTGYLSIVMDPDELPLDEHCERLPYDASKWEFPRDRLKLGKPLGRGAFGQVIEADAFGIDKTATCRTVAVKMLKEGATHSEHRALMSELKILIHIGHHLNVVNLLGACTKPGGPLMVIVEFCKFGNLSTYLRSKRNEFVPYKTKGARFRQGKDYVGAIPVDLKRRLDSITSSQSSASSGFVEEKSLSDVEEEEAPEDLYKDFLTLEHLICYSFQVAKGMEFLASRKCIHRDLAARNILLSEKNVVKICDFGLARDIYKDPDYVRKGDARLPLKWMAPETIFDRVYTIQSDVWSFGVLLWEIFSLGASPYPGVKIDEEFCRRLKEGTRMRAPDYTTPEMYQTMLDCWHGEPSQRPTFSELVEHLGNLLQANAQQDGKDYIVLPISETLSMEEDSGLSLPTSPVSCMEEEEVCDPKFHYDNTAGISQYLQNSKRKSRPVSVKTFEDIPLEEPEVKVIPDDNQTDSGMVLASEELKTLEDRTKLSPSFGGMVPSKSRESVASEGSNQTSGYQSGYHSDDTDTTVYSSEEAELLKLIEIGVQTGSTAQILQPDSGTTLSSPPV

Turning to `O=C1Nc2ccccc2C1=C1OCc2ccccc21` [Example 1, 3-(3H-isobenzofuran-1-ylidene)-1,3-dihydro-indol-2-one], the concentration for half-maximal inhibition (IC50) (commonly the concentration needed to halve the response being measured) in test [1] (Homo sapiens) is 0.11 µM. Also, the inhibition (in general, how much of the control response was suppressed) at 10 µM in test [1] (setting [3]) is 99%.

Take `O=C1Nc2ccc(Cl)cc2C1=C1OCc2ccccc21` [Example 2, 5-Chloro-3-(3H-isobenzofuran-1-ylidene)-1,3-dihydro-indol-2-one]: the IC50 in test [1] (Homo sapiens) was found to be 0.05 µM. In addition, in test [1] (setting [3]), the inhibition at 10 µM amounted to 98%.

Consider `Cc1cccc2c1C(=C1OCc3ccccc31)C(=O)N2` [Example 3, 3-(3H-Isobenzofuran-1-ylidene)-4-methyl-1,3-dihydro-indol-2-one], for which, in test [1] (Homo sapiens), the IC50 is 0.685 µM. For the same compound, the inhibition at 10 µM in test [1] (setting [3]) stood at 95%.

In the case of `O=C1Nc2ccc(F)cc2C1=C1OCc2ccccc21` [Example 4, 5-Fluoro-3-(3H-isobenzofuran-1-ylidene)-1,3-dihydro-indol-2-one], the results for the IC50 in test [2] and in test [1] (Homo sapiens) were 0.073 µM and 0.055 µM, respectively. For the same compound, the inhibition at 10 µM in test [1] (setting [3]) was 99%.

As to `Nc1ccc2c(c1)C(=C1C(=O)Nc3ccccc31)OC2` [Example 5, 3-(6-Amino-3H-isobenzofuran-1-ylidene)-1,3-dihydro-indol-2-one], the IC50 in test [2] is 0.13 µM; in test [1] (Homo sapiens), 0.04 µM. Moreover, in test [1] (setting [3]), the inhibition at 10 µM worked out at 98%.

`CCCC(=O)Nc1ccc2c(c1)C(=C1C(=O)Nc3ccccc31)OC2` [Example 7, N-[3-(2-Oxo-1,2-dihydro-indol-3-ylidene)-1,3-dihydro-isobenzofuran-5-yl]-butyramide] came in with an IC50 in test [2] of 9.78 µM. Also, the inhibition at 10 µM in test [1] (setting [3]) amounted to 5%.

On to `O=C1Nc2ccccc2C1=C1OCc2ccc(NC(=O)C3CC3)cc21` [Example 8, Cyclopropanecarboxylic acid [3-(2-oxo-1,2-dihydro-indol-3-ylidene)-1,3-dihydro-isobenzofuran-5-yl]-amide], for which the IC50 in test [2] is 0.85 µM. In addition, the inhibition at 10 µM in test [1] (setting [3]) is 48%.

Turning to `O=C(CCCCl)Nc1ccc2c(c1)C(=C1C(=O)Nc3ccccc31)OC2` [Example 9, 4-Chloro-N-[3-(2-oxo-1,2-dihydro-indol-3-ylidene)-1,3-dihydro-isobenzofuran-5-yl]-butyramide], in test [2], the IC50 is 3.25 µM. Moreover, in test [1] (setting [3]), the inhibition at 10 µM worked out at 35%.

In the case of `COc1ccc(CC(=O)Nc2ccc3c(c2)C(=C2C(=O)Nc4ccccc42)OC3)cc1` [Example 10, 2-(4-Methoxy-phenyl)-N-[3-(2-oxo-1,2-dihydro-indol-3-ylidene)-1,3-dihydro-isobenzofuran-5-yl]-acetamide], the concentration for half-maximal inhibition (IC50) in test [2] was 8.02 µM. Besides, the inhibition at 10 µM in test [1] (setting [3]) amounted to 50%.

On to `CCNc1ccc2c(c1)C(=C1C(=O)Nc3ccccc31)OC2` [Example 11, 3-(6-Ethylamino-3H-isobenzofuran-1-ylidene)-1,3-dihydro-indol-2-one], for which the results for the IC50 in test [2] and in test [1] (Homo sapiens) were 0.66 µM and 0.78 µM, respectively. The inhibition at 10 µM in test [1] (setting [3]) is 99%.

As for `Nc1ccc2c(c1)COC2=C1C(=O)Nc2ccccc21` [Example 12, 3-(5-Amino-3H-isobenzofuran-1-ylidene)-1,3-dihydro-indol-2-one], the IC50 was found to be 0.065 µM in test [2] and 0.04 µM in test [1] (Homo sapiens). In test [1] (setting [3]), the inhibition at 10 µM came to 98%.

With `Nc1ccc(CO)c(C(=O)Nc2ccc3c(c2)C(=C2C(=O)Nc4ccccc42)OC3)c1` [Example 13, 5-Amino-2-hydroxymethyl-N-[3-(2-oxo-1,2-dihydro-indol-3-ylidene)-1,3-dihydro-isobenzofuran-5-yl]-benzamide], the IC50 in test [2] was found to be 1.34 µM; in test [1] (Homo sapiens) it was 2.1 µM. Also, the inhibition at 10 µM in test [1] (setting [3]) came out at 99%.

As to `O=C1Nc2ccccc2C1=C1OCc2ccc(NCCCO)cc21` [Example 14, 3-[6-(3-Hydroxy-propylamino)-3H-isobenzofuran-1-ylidene]-1,3-dihydro-indol-2-one], the IC50 in test [2] came to 0.64 µM; in test [1] (Homo sapiens) it was 0.85 µM. In addition, the inhibition at 10 µM in test [1] (setting [3]) is 100%.

Consider `CCNc1ccc2c(c1)COC2=C1C(=O)Nc2ccccc21` [Example 15, 3-(5-Ethylamino-3H-isobenzofuran-1-ylidene)-1,3-dihydro-indol-2-one], for which the IC50 in test [2] turned out to be 0.037 µM; in test [1] (Homo sapiens) it was 0.051 µM. In test [1] (setting [3]), the inhibition at 10 µM stood at 95%.

For the compound `Nc1ccc2c(c1)C(=C1C(=O)Nc3ccc(Cl)cc31)OC2` [Example 16, 3-(6-Amino-3H-isobenzofuran-1-ylidene)-5-chloro-1,3-dihydro-indol-2-one], the IC50 in test [2] was 0.015 µM; in test [1] (Homo sapiens), 0.06 µM. Moreover, the inhibition at 10 µM in test [1] (setting [3]) is 99%.

With `Nc1ccc2c(c1)CO/C2=C1/C(=O)Nc2ccc(Cl)cc21` [Example 17, 3-(5-Amino-3H-isobenzofuran-1-ylidene)-5-chloro-1,3-dihydro-indol-2-one], the IC50 was 0.139 µM in test [2] and 0.055 µM in test [1] (Homo sapiens). For the same compound, the inhibition at 10 µM in test [1] (setting [3]) was determined as 98%.

In the case of `CC(=O)Nc1ccc2c(c1)COC2=C1C(=O)Nc2ccccc21` [Example 18, N-[1-(2-Oxo-1,2-dihydro-indol-3-ylidene)-1,3-dihydro-isobenzofuran-5-yl]-acetamide], the IC50 in test [2] worked out at 0.063 µM; in test [1] (Homo sapiens) it was 0.04 µM. Further, in test [1] (setting [3]), the inhibition at 10 µM is 97%.

`CC(=O)Nc1ccc2c(c1)COC2=C1C(=O)Nc2ccc(Cl)cc21` [Example 19, N-[1-(5-Chloro-2-oxo-1,2-dihydro-indol-3-ylidene)-1,3-dihydro-isobenzofuran-5-yl]-acetamide]: the IC50 in test [2] was found to be 0.066 µM; in test [1] (Homo sapiens), 0.05 µM. In addition, the inhibition at 10 µM in test [1] (setting [3]) was 99%.

`CC(=O)Nc1ccc2c(c1)C(=C1C(=O)Nc3ccc(Cl)cc31)OC2` [Example 20, N-[3-(5-Chloro-2-oxo-1,2-dihydro-indol-3-ylidene)-1,3-dihydro-isobenzofuran-5-yl]-acetamide]: the IC50 in test [2] was 0.39 µM; in test [1] (Homo sapiens), 0.097 µM. Further, the inhibition at 10 µM in test [1] (setting [3]) worked out at 99%.

Turning to `CN(C)c1ccc2c(c1)C(=C1C(=O)Nc3ccccc31)OC2` [Example 21, 3-(6-Dimethylamino-3H-isobenzofuran-1-ylidene)-1,3-dihydro-indol-2-one], the IC50 in test [2] was 1.69 µM; in test [1] (Homo sapiens), 1.31 µM. Besides, in test [1] (setting [3]), the inhibition at 10 µM came out at 94%.

`CNc1ccc2c(c1)C(=C1C(=O)Nc3ccccc31)OC2` [Example 22, 3-(6-Methylamino-3H-isobenzofuran-1-ylidene)-1,3-dihydro-indol-2-one]: the half-maximal inhibitory concentration (IC50) in test [2] is 0.17 µM; in test [1] (Homo sapiens), 0.29 µM. Also, in test [1] (setting [3]), the inhibition at 10 µM is 96%.

As to `CN(C)c1ccc2c(c1)COC2=C1C(=O)Nc2ccccc21` [Example 23, 3-(5-Dimethylamino-3H-isobenzofuran-1-ylidene)-1,3-dihydro-indol-2-one], the IC50 in test [2] turned out to be 0.043 µM; in test [1] (Homo sapiens), 0.096 µM. Besides, in test [1] (setting [3]), the inhibition at 10 µM worked out at 96%.

For `CNc1ccc2c(c1)COC2=C1C(=O)Nc2ccccc21` [Example 24, 3-(5-Methylamino-3H-isobenzofuran-1-ylidene)-1,3-dihydro-indol-2-one], the results for the IC50 in test [2] and in test [1] (Homo sapiens) were 0.061 µM and 0.073 µM, respectively. In test [1] (setting [3]), the inhibition at 10 µM is 98%.

With “[3-(2-Oxo-1,2-dihydro-indol-3-ylidene)-1,3-dihydro-isobenzofuran-5-yl]-acetamide [Example 6]”, the 50% inhibitory concentration (IC50) in test [2] amounted to 1.11 µM; in test [1], 1.23 µM. Also, the “VEGF (% inhibition @ 10 uM) (Cell based assay, Ca++)” value in test [1] (single concentration 10 uM, VEGF 5 ng/mL) came to 97%.
